From US20250295626A1, “CARBON MONOXIDE-RELEASING MOLECULE (CORM) OR COMPOSITION THEREOF FOR USE IN THE TREATMENT OR THE PREVENTION OF AN INTESTINAL DYSBIOSIS IN A SUBJECT” (priority 2022, published 2025)

Columns and labels:
Type in all cases: in vivo, C57BL6 mice
[1] = tested on: intestinal microbiota of HFD mice; experiment: Abundance of bacterial species of intestinal microbiota in faeces (shotgun metagenomic/metatranscriptomic sequencing)
Method: Eight-week-old male C57BL6 mice weighing approximately 25 g were fed either a standard diet (SD), high fat diet (HFD) or HFD+CORM-401 for 14 weeks (n=9-10 per group). CORM-401 was prepared freshly in phosphate buffer solution (PBS) and administered orally to mice three times a week each time at a dose of (30 mg/kg=90 μmoles/kg) during the entire HFD regime. Faeces from the three groups of mice were then collected after the 14 week HFD regime for microbiota analysis before mice were sacrificed.
The stool samples DNA and RNA (n=3 per group) were extracted and the sequencing was carried out by a shotgun metagenomic/metatranscriptomic technique as previously described. Briefly, a pre-extraction step combining mechanical, enzymatic and chemical procedures was performed prior to extraction by means of a QIAsymphony PowerFecal Pro DNA Kit (QIAGEN). The extracts were used for DNA/RNA library preparation and determination of pair-end sequences using a NextSeq500 Instrument (Illumina). Fastq files were analysed by an in-house software MetaMIC (v2.2.0). The data were filtered based on quality (phred score) and the sequences were mapped against several custom databases, counted and collected in a separate Fastq file. Sequence counts were made for each bacterial species and compared to the environmental control. The number of sequences for each species was used to determine their relative abundance in each group of mice. • b) Results

[2] = Levels of blood carbon monoxide hemoglobin (COHb) after oral administration
Method: The levels of COHb (carbon monoxide bound to hemoglobin) were measured at different time points after oral administration of CORM-401 in two groups of eight-week-old male C57BL6 mice that were fed either a standard diet (SD) or a high fat diet (HFD) for 14 weeks (n=9-10 per group). CORM-401 was freshly prepared in phosphate buffer solution (PBS) and administered orally at a dose of 30 mg/kg=90 μmoles/kg (n=6) and COHb in blood was measured after 1, 6, 24 and 48 hours. • b) Results

[3] = CO accumulation in intestinal tissues after oral administration (hemoCD1 quantification); conditions: oral 30 mg/kg
Method: Eight-week-old male C57BL6 mice weighing approximately 25 g were treated with an oral administration of either CORM-401 (30 mg/kg) or PBS (control group) and then sacrificed after 1, 3, 6, 24 and 48 hours (n=6 per time point). Organs were collected to determine the levels of CO accumulation in different intestinal tissues following the two treatments. The body compartments where the intestinal microbiota is most likely to be present such as the caecum, caecum content, colon and faeces were analyzed. CO accumulation was quantified using the CO sensitive scavenger hemoCD1 as previously reported by the inventors such as in Mao et al, 2021 [10]; Minegishi et al, 2017 [11]. Briefly, fifty milligrams of tissue were homogenized in 0.5 ml PBS in the presence of hemoCD1 (2-10 μM) and sodium dithionite (1 mg). Tissue homogenates were first sonicated, then samples were centrifuged, and the supernatants filtered before measurements by UV-VIS absorption spectroscopy. The concentration of CO was calculated from the absorbances at 422 and 434 nm using a reported equation (Kitagishi et al, 2010; Braud et al 2018 [13]). • b) Results

[4] = HFD + CORM, faeces after 14 weeks, 30 mg/kg orally three times a week, average of 3
[5] = HFD mice treated 14 weeks, 30 mg/kg orally three times a week

CN(CC(=O)O)C(=S)[S-].[C-]#[O+].[C-]#[O+].[C-]#[O+].[C-]#[O+].[Mn] [CORM-401]
Abundance of Adlercreutzia equolifaciens [1, 4]: 4445 number of sequences
Abundance of Aerococcus viridans [1, 4]: 1650 number of sequences
Abundance of Akkermansia muciniphila [1, 4]: 120300 number of sequences
Abundance of Alistipes finegoldii [1, 4]: 6727 number of sequences
Abundance of Alistipes shahii [1, 4]: 9490 number of sequences
Abundance of Bacteroides caecimuris [1, 4]: 14812 number of sequences
Abundance of Bacteroides cellulosilyticus [1, 4]: 246 number of sequences
Abundance of Bacteroides dorei [1, 4]: 3093 number of sequences
Abundance of Bacteroides fragilis [1, 4]: 3651 number of sequences
Abundance of Bacteroides xylanisolvens [1, 4]: 1151 number of sequences
Abundance of Barnesiella viscericola [1, 4]: 350 number of sequences
Abundance of Blautia sp. YL58 [1, 4]: 934 number of sequences
Abundance of Burkholderiales bacterium YL45 [1, 4]: 159 number of sequences
Abundance of Carnobacterium divergens [1, 4]: 1726 number of sequences
Abundance of Clostridioides difficile [1, 4]: 1101 number of sequences
Abundance of Clostridium bolteae [1, 4]: 3559 number of sequences
Abundance of Enterococcus faecalis [1, 4]: 4655 number of sequences
Abundance of Enterococcus faecium [1, 4]: 7750 number of sequences
Abundance of Erysipelotrichaceae bacterium I46 [1, 4]: 1788 number of sequences
Abundance of Faecalibacterium prausnitzii [1, 4]: 3622 number of sequences
Abundance of Faecalibaculum rodentium [1, 4]: 120296 number of sequences
Abundance of Faecalitalea cylindroides [1, 4]: 1039 number of sequences
Abundance of Flavonifractor plautii [1, 4]: 7720 number of sequences
Abundance of Intestinimonas butyriciproducens [1, 4]: 2426 number of sequences
Abundance of Lachnoclostridium phocaeense [1, 4]: 2366 number of sequences
Abundance of Lachnoclostridium sp. YL32 [1, 4]: 14254 number of sequences
Abundance of Lactobacillus acidipiscis [1, 4]: 630 number of sequences
Abundance of Lactobacillus agilis [1, 4]: 2223 number of sequences
Abundance of Lactobacillus animalis [1, 4]: 1355 number of sequences
Abundance of Lactobacillus fermentum [1, 4]: 10256 number of sequences
Abundance of Lactobacillus gallinarum [1, 4]: 928 number of sequences
Abundance of Lactobacillus gasseri [1, 4]: 61826 number of sequences
Abundance of Lactobacillus helveticus [1, 4]: 2955 number of sequences
Abundance of Lactobacillus johnsonii [1, 4]: 162300 number of sequences
Abundance of Lactobacillus murinus [1, 4]: 4440 number of sequences
Abundance of Lactobacillus plantarum [1, 4]: 1011 number of sequences
Abundance of Lactobacillus reuteri [1, 4]: 339700 number of sequences
Abundance of Lactobacillus ruminis [1, 4]: 2160 number of sequences
Abundance of Lactobacillus salivarius [1, 4]: 3546 number of sequences
Abundance of Lactococcus garvieae [1, 4]: 3953 number of sequences
Abundance of Lactococcus lactis [1, 4]: 642300 number of sequences
Abundance of Lactococcus piscium [1, 4]: 4133 number of sequences
Abundance of Libanicoccus massiliensis [1, 4]: 4193 number of sequences
Abundance of Listeria monocytogenes [1, 4]: 2783 number of sequences
Abundance of Mordavella sp. Marseille-P3756 [1, 4]: 1240 number of sequences
Abundance of Muribaculum intestinale [1, 4]: 21500 number of sequences
Abundance of Olsenella sp. Marseille-P2300 [1, 4]: 4915 number of sequences
Abundance of Olsenella uli [1, 4]: 1483 number of sequences
Abundance of Olsenella umbonata [1, 4]: 1620 number of sequences
Abundance of Oscillibacter valericigenes [1, 4]: 1053 number of sequences
Abundance of Parabacteroides goldsteinii [1, 4]: 43 number of sequences
Abundance of Romboutsia ilealis [1, 4]: 21923 number of sequences
Abundance of Roseburia intestinalis [1, 4]: 1190 number of sequences
Abundance of Ruminiclostridium sp. KB18 [1, 4]: 18969 number of sequences
Abundance of Streptococcus thermophilus [1, 4]: 7718 number of sequences
Abundance of uncultured Firmicutes bacterium [1, 4]: 1355 number of sequences
Change in the abundance of Alistipes fingoldii [1, 5]: marked increase
Change in the abundance of Alistipes shahii [1, 5]: marked increase
Change in the abundance of Olsenella uli [1, 5]: marked increase
Change in the abundance of Olsenella umbonata [1, 5]: marked increase
Change in the abundance of Romboutsia ilealis [1, 5]: decrease
Rank of Akkermansia muciniphila in the intestinal bacteria profile [1, 5]: among the most dominant species
Overall effect on the intestinal microbiota ([1]; HFD mice, oral administration): reshapes the intestinal microbiota HFD mice towards a healthy phenotype
COHb levels in blood ([2]; 1 hour after oral administration of 30 mg/kg, both SD-fed and HFD-fed mice): significantly increased
Period over which blood COHb gradually decreased to baseline levels ([2]; oral 30 mg/kg, SD-fed and HFD-fed mice): 48 h
Time at which the maximum CO content was reached ([3]; all compartments (caecum, caecum content, colon, faeces)): 6 h
Time after which CO content returned to basal levels ([3]; all compartments): 48 h
CO accumulation (time-dependent) ([3]; caecum tissue, caecum content, colon and faeces, vs PBS control): significantly accumulated
